Results from USRE48711E1, “Apoptosis signal-regulating kinase inhibitors” (Gilead Sciences, Inc., priority 2009, dated 2021).

Target: ASK1 (Apoptosis Signal-Regulating Kinase 1) (Homo sapiens (Human), UniProt Q99683)
Test: ASK1 (Apoptosis Signal-Regulating Kinase 1) TR-FRET Kinase Assay (Biochemical IC50)
Details: TR-FRET, biotin-MBP substrate, 20 min pre-incubation, ATP added as 300 μM solution
Protocol: The ability of compounds to inhibit ASK1 kinase activity was determined using a time resolved fluorescence resonance energy transfer [TR-FRET] assay utilizing biotinylated myelin basic protein [biotin-MBP] as the protein substrate. […] The enzyme was allowed to pre-incubate with compound for 20 minutes prior to initiating the kinase reaction with the addition of 5 μL/well 300 μM ATP in buffer (50 mM MOPS, pH 7.0, 5 mM Mg-acetate, 1 mM DTT, 5% DMSO) using the Decrac Fluidics Equator. The kinase reactions were allowed to proceed for 20 minutes at ambient temperature and were subsequently stopped with the addition of 5 μL/well 25 mM EDTA using the Deerac Fluidics Equator. […] The TR-FRET signal was then read on a Perkin. Elmer Envision plate reader after incubating the plates at ambient temperature for 2 hours.

Sequence of ASK1 (Apoptosis Signal-Regulating Kinase 1) (Q99683 649-946): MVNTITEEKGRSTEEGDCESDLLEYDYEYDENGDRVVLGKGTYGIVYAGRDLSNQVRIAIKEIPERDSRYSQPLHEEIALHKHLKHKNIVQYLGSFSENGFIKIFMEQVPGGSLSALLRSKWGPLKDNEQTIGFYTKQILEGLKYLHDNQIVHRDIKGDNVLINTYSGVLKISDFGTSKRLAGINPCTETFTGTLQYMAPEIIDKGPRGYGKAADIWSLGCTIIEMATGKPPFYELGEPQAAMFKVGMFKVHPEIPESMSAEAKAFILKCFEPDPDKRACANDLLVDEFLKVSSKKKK

Compound	IC50 [nM]
CCc1ncc(-c2ccnc(C(=O)Nc3cccc(-c4nncn4C4CC4)c3)c2)cc1Cl [Example 139, 5-chloro-N-(3-(4-cyclopropyl-4H-1,2,4-triazol-3-yl)phenyl)-6-ethyl-3,4′-bipyridine-2′-carboxamide]	16
O=C(Nc1cccc(-c2nncn2C2CC2)c1)c1cc(-c2cnc3ccoc3c2)ccn1 [Example 142, N-(3-(4-cyclopropyl-4H-1,2,4-triazol-3-yl)phenyl)-4-(furo[3,2-b]pyridin-6-yl)picolinamide]	11
Cn1cnc2cc(-c3ccnc(C(=O)Nc4cccc(-c5nncn5C5CC5)c4)c3)cnc21 [Example 143, N-(3-(4-cyclopropyl-4H-1,2,4-triazol-3-yl)phenyl)-4-(3-methyl-3H-imidazo[4,5-b]pyridin-6-yl)picolinamide]	15
CCc1ncc(-c2ccnc(C(=O)Nc3cccc(-c4nncn4C4CC4)c3)c2)cn1 [Example 145, N-(3-(4-cyclopropyl-4H-1,2,4-triazol-3-yl)phenyl)-4-(2-ethylpyrimidin-5-yl)picolinamide]	7
CCc1ccc(-c2ccnc(C(=O)Nc3ccc(F)c(-c4nncn4C4CC4)c3)c2)cn1 [Example 148, N-(3-(4-cyclopropyl-4H-1,2,4-triazol-3-yl)-4-fluorophenyl)-6-ethyl-3,4′-bipyridine-2′-carboxamide]	56
CC(C)(C)c1ccc(-c2ccnc(C(=O)Nc3cccc(-c4nncn4C4CC4)c3)c2)cn1 [Example 149, 6-tert-butyl-N-(3-(4-cyclopropyl-4H-1,2,4-triazol-3-yl)phenyl)-3,4′-bipyridine-2′-carboxamide]	25
O=C(Nc1cccc(-c2nncn2C2CC2)n1)c1cccc(-c2ccc(C3CC3)nc2)c1 [Example 151, N-(6-(4-cyclopropyl-4H-1,2,4-triazol-3-yl)pyridin-2-yl)-3-(6-cyclopropylpyridin-3-yl)benzamide]	8
O=C(Nc1ccnc(-c2nncn2C2CC2)c1)c1cc(-c2cnc3ccccc3c2)ccn1 [Example 153, N-(2-(4-cyclopropyl-4H-1,2,4-triazol-3-yl)pyridin-4-yl)-4-(quinolin-3-yl)picolinamide]	409
O=C(Nc1cccc(-c2nncn2C2CC2)c1)c1cc(-c2cnc3c(c2)CNCC3)ccn1 [Example 154, N-(3-(4-cyclopropyl-4H-1,2,4-triazol-3-yl)phenyl)-4-(5,6,7,8-tetrahydro-1,6-naphthyridin-3-yl)picolinamide]	34

The remaining compounds from weak to strong by IC50, led by results:

IC50 [nM]	Compound
400	O=C(Nc1ccc(F)c(-c2nncn2C2CC2)c1)c1cc(-c2ccc(C3CC3)nc2)ccn1 [Example 147, 6-cyclopropyl-N-(3-(4-cyclopropyl-4H-1,2,4-triazol-3-yl)-4-fluorophenyl)-3,4′-bipyridine-2′-carboxamide]
286	O=C(Nc1ccnc(-c2nncn2C2CC2)c1)c1cc(-c2ccc(C3CC3)nc2)ccn1 [Example 152, 6-cyclopropyl-N-(2-(4-cyclopropyl-4H-1,2,4-triazol-3-yl)pyridin-4-yl)-3,4′-bipyridine-2′-carboxamide]
17	O=C(Nc1cccc(-c2nncn2C2CC2)n1)c1cccc(-c2cnc3ccccc3c2)c1 [Example 150, N-(6-(4-cyclopropyl-4H-1,2,4-triazol-3-yl)pyridin-2-yl)-3-(quinolin-3-yl)benzamide]
14	O=C(Nc1cccc(-c2nncn2C2CC2)c1)c1cc(-c2ccc(C3CC3)nc2)ncn1 [Example 144, N-(3-(4-cyclopropyl-4H-1,2,4-triazol-3-yl)phenyl)-6-(6-cyclopropylpyridin-3-yl)pyrimidine-4-carboxamide]
13	CCc1cc(-c2ccnc(C(=O)Nc3cccc(-c4nncn4C4CC4)c3)c2)cnc1CC [Example 141, N-(3-(4-cyclopropyl-4H-1,2,4-triazol-3-yl)phenyl)-5,6-diethyl-3,4′-bipyridine-2′-carboxamide]
8	CCc1cncc(-c2ccnc(C(=O)Nc3cccc(-c4nncn4C4CC4)c3)c2)c1 [Example 146, N-(3-(4-cyclopropyl-4H-1,2,4-triazol-3-yl)phenyl)-5-ethyl-3,4′-bipyridine-2′-carboxamide]
